Reference: ChEMBL document CHEMBL1152667, “Synthesis and radiopharmacological investigation of 3-[4'-[(18)F]fluorobenzylidene]indolin-2-one as possible tyrosine kinase inhibitor” (Bioorg Med Chem, 2009)

How the values were obtained:
[1] = test system: Femur; assay: Biodistribution in Wistar rat femur at 1.7 MBq, iv administered as single dose measured after 5 mins post-injection by gamma counting; format: ADME, organism-based; settings: in vivo
[2] = test system: Kidney; assay: Biodistribution in Wistar rat kidney at 1.7 MBq, iv administered as single dose measured after 10 mins post-injection by gamma counting; format: ADME, organism-based; settings: in vivo
[3] = test system: Kidney; assay: Biodistribution in Wistar rat kidney at 1.7 MBq, iv administered as single dose measured after 30 mins post-injection by gamma counting; format: ADME, organism-based; settings: in vivo, 0.5 h
[4] = Ratio of drug level in lung to blood in Wistar rat at 1.7 MBq, iv administered as single dose measured after 60 mins post-injection; format: ADME, organism-based
[5] = Metabolic stability in Wistar rat blood assessed as compound remaining at 30 MBq, iv after 10 mins by radio-HPLC analysis; format: ADME, organism-based; settings: read-out: Stability
[6] = test system: Harderian gland; assay: Biodistribution in Wistar rat harderian gland at 1.7 MBq, iv administered as single dose measured after 30 mins post-injection by gamma counting; format: ADME, organism-based; settings: in vivo, 0.5 h
[7] = test system: Mus musculus; assay: Metabolic stability in mouse at 11 MBq, iv after 45 mins by radio-HPLC analysis; format: ADME, organism-based; settings: in vivo, 0.75 h
[8] = test system: Heart; assay: Biodistribution in Wistar rat heart at 1.7 MBq, iv administered as single dose measured after 60 mins post-injection by gamma counting; format: ADME, organism-based; settings: in vivo, 1 h
[9] = test system: Femur; assay: Biodistribution in Wistar rat femur at 1.7 MBq, iv administered as single dose measured after 60 mins post-injection by gamma counting; format: ADME, organism-based; settings: in vivo, 1 h
[10] = test system: Testes; assay: Biodistribution in Wistar rat testes at 1.7 MBq, iv administered as single dose measured after 60 mins post-injection by gamma counting; format: ADME, organism-based, Testis; settings: in vivo, 1 h
[11] = Ratio of drug level in liver to blood in Wistar rat at 1.7 MBq, iv administered as single dose measured after 5 mins post-injection; format: ADME, organism-based
[12] = Ratio of drug level in kidney to blood in Wistar rat at 1.7 MBq, iv administered as single dose measured after 60 mins post-injection; format: ADME, organism-based
[13] = test system: Blood; assay: Biodistribution in Wistar rat blood assessed as standard uptake value at 1.7 MBq, iv administered as single dose measured after 30 mins post-injection by gamma counting; format: ADME, organism-based; settings: in vivo, 0.5 h
[14] = Biodistribution in Wistar rat brown adipose tissue assessed as standard uptake value at 1.7 MBq, iv administered as single dose measured after 30 mins post-injection by gamma counting; format: ADME, organism-based; settings: in vivo, 0.5 h
[15] = test system: Kidney; assay: Biodistribution in Wistar rat kidney assessed as standard uptake value at 1.7 MBq, iv administered as single dose measured after 30 mins post-injection by gamma counting; format: ADME, organism-based; settings: in vivo, 0.5 h
[16] = test system: Pancreas; assay: Biodistribution in Wistar rat pancreas assessed as standard uptake value at 1.7 MBq, iv administered as single dose measured after 1 min post-injection by gamma counting; format: ADME, organism-based; settings: in vivo
[17] = Biodistribution in Wistar rat adipose tissue assessed as standard uptake value at 1.7 MBq, iv administered as single dose measured after 1 min post-injection by gamma counting; format: ADME, organism-based; settings: in vivo
[18] = test system: Blood; assay: Biodistribution in Wistar rat blood assessed as standard uptake value at 1.7 MBq, iv administered as single dose measured after 5 mins post-injection by gamma counting; format: ADME, organism-based; settings: in vivo
[19] = Biodistribution in Wistar rat brown adipose tissue assessed as standard uptake value at 1.7 MBq, iv administered as single dose measured after 5 mins post-injection by gamma counting; format: ADME, organism-based; settings: in vivo
[20] = test system: Brain; assay: Biodistribution in Wistar rat brain assessed as standard uptake value at 1.7 MBq, iv administered as single dose measured after 5 mins post-injection by gamma counting; format: ADME, organism-based; settings: in vivo
[21] = test system: Heart; assay: Biodistribution in Wistar rat heart assessed as standard uptake value at 1.7 MBq, iv administered as single dose measured after 30 mins post-injection by gamma counting; format: ADME, organism-based; settings: in vivo, 0.5 h
[22] = test system: Blood; assay: Biodistribution in Wistar rat blood assessed as standard uptake value at 1.7 MBq, iv administered as single dose measured after 60 mins post-injection by gamma counting; format: ADME, organism-based; settings: in vivo, 1 h
[23] = test system: Spleen; assay: Biodistribution in Wistar rat spleen assessed as standard uptake value at 1.7 MBq, iv administered as single dose measured after 60 mins post-injection by gamma counting; format: ADME, organism-based; settings: in vivo, 1 h
[24] = Biodistribution in Wistar rat thyroid gland assessed as standard uptake value at 1.7 MBq, iv administered as single dose measured after 60 mins post-injection by gamma counting; format: ADME, organism-based; settings: in vivo, 1 h
[25] = test system: Spleen; assay: Biodistribution in Wistar rat spleen assessed as standard uptake value at 1.7 MBq, iv administered as single dose measured after 5 mins post-injection by gamma counting; format: ADME, organism-based; settings: in vivo
[26] = test system: Heart; assay: Biodistribution in Wistar rat heart assessed as standard uptake value at 1.7 MBq, iv administered as single dose measured after 5 mins post-injection by gamma counting; format: ADME, organism-based; settings: in vivo
[27] = test system: Liver; assay: Biodistribution in Wistar rat liver assessed as standard uptake value at 1.7 MBq, iv administered as single dose measured after 5 mins post-injection by gamma counting; format: ADME, organism-based; settings: in vivo
[28] = test system: Testes; assay: Biodistribution in Wistar rat testes assessed as standard uptake value at 1.7 MBq, iv administered as single dose measured after 5 mins post-injection by gamma counting; format: ADME, organism-based, Testis; settings: in vivo
[29] = test system: Brain; assay: Biodistribution in Wistar rat brain assessed as standard uptake value at 1.7 MBq, iv administered as single dose measured after 10 mins post-injection by gamma counting; format: ADME, organism-based; settings: in vivo
[30] = test system: Testes; assay: Biodistribution in Wistar rat testes assessed as standard uptake value at 1.7 MBq, iv administered as single dose measured after 60 mins post-injection by gamma counting; format: ADME, organism-based, Testis; settings: in vivo, 1 h
[31] = test system: Kidney; assay: Biodistribution in Wistar rat kidney at 1.7 MBq, iv administered as single dose measured after 1 min post-injection by gamma counting; format: ADME, organism-based; settings: in vivo
[32] = Biodistribution in Wistar rat thyroid gland at 1.7 MBq, iv administered as single dose measured after 1 min post-injection by gamma counting; format: ADME, organism-based; settings: in vivo
[33] = test system: Kidney; assay: Biodistribution in Wistar rat kidney assessed as standard uptake value at 1.7 MBq, iv administered as single dose measured after 10 mins post-injection by gamma counting; format: ADME, organism-based; settings: in vivo
[34] = test system: Thymus; assay: Biodistribution in Wistar rat thymus assessed as standard uptake value at 1.7 MBq, iv administered as single dose measured after 10 mins post-injection by gamma counting; format: ADME, organism-based; settings: in vivo
[35] = Biodistribution in Wistar rat thyroid gland assessed as standard uptake value at 1.7 MBq, iv administered as single dose measured after 10 mins post-injection by gamma counting; format: ADME, organism-based; settings: in vivo
[36] = test system: Harderian gland; assay: Biodistribution in Wistar rat harderian gland assessed as standard uptake value at 1.7 MBq, iv administered as single dose measured after 10 mins post-injection by gamma counting; format: ADME, organism-based; settings: in vivo
[37] = test system: Testes; assay: Biodistribution in Wistar rat testes at 1.7 MBq, iv administered as single dose measured after 1 min post-injection by gamma counting; format: ADME, organism-based, Testis; settings: in vivo
[38] = Biodistribution in Wistar rat stomach at 1.7 MBq, iv administered as single dose measured after 1 min post-injection by gamma counting; format: ADME, organism-based; settings: in vivo
[39] = Biodistribution in Wistar rat urine at 1.7 MBq, iv administered as single dose measured after 1 min post-injection by gamma counting; format: ADME, organism-based; settings: in vivo
[40] = test system: Brain; assay: Biodistribution in Wistar rat brain at 1.7 MBq, iv administered as single dose measured after 5 mins post-injection by gamma counting; format: ADME, organism-based; settings: in vivo
[41] = test system: Spleen; assay: Biodistribution in Wistar rat spleen at 1.7 MBq, iv administered as single dose measured after 5 mins post-injection by gamma counting; format: ADME, organism-based; settings: in vivo
[42] = test system: Kidney; assay: Biodistribution in Wistar rat kidney at 1.7 MBq, iv administered as single dose measured after 5 mins post-injection by gamma counting; format: ADME, organism-based; settings: in vivo

O=C1Nc2ccccc2/C1=C/c1ccc([18F])cc1
Drug uptake [1]: 0.35 %ID
Drug uptake [2]: 2.28 %ID
Drug uptake [3]: 1.45 %ID
Kp at 1 h [4]: 1.4
remaining at 10 min [5]: 18%
Drug uptake [6]: 0.14 %ID
Stability [7]: Unstable
Drug uptake [8]: 0.08 %ID
Drug uptake [9]: 0.11 %ID
Drug uptake [10]: 0.24 %ID
Kp at 5 min [11]: 6.7
Kp at 1 h [12]: 7.6
SUV [13]: 0.27%
SUV [14]: 0.98%
SUV [15]: 1.69%
SUV [16]: 2.4%
SUV [17]: 0.7%
SUV [18]: 0.56%
SUV [19]: 2.29%
SUV [20]: 1.67%
SUV [21]: 0.44%
SUV [22]: 0.15%
SUV [23]: 0.13%
SUV [24]: 0.16%
SUV [25]: 0.79%
SUV [26]: 1.33%
SUV [27]: 3.74%
SUV [28]: 0.41%
SUV [29]: 0.97%
SUV [30]: 0.19%
Drug uptake [31]: 3.13 %ID
Drug uptake [32]: 0.09 %ID
SUV [33]: 2.27%
SUV [34]: 0.53%
SUV [35]: 0.75%
SUV [36]: 1.91%
Drug uptake [37]: 0 %ID
Drug uptake [38]: 0.71 %ID
Drug uptake [39]: 3.97 %ID
Drug uptake [40]: 1.87 %ID
Drug uptake [41]: 0.23 %ID
Drug uptake [42]: 2.51 %ID
